From patent US8247380B2, “Alpha 1-acid glycoprotein, alpha 2-HS glycoprotein, alpha 1-antitrypsin, and fragments thereof induce apoptosis in cancer cell lines” (Ambryx Biotechnology, D.C., priority 1997, dated 2012)
Entries after “also recorded” stand apart in the source; their conditions may differ.

Key:
[1] = test system: tumor cell line P388D1 (leukemia); assay: Effect of fetal fetuin on leukemia-bearing mice; format: in vivo, DBA/2 female mice
Method: Forty DBA/2 female mice (17-20 grams; Simonsen Laboratories, Inc., Gilroy, Calif.) kept on a standard diet and water ad libitum were inoculated with tumor cell line P388D1 (ATCC cell line number CCL46). The mice were randomly segregated into groups of ten (10). Zinc-charged fetal fetuin (10 mg/ml) were intraperitoneally injected into group I at 0.002 ml/mouse, group II at 0.02 ml/mouse and group III at 0.2 ml/mouse. Group IV was the control group, which was injected with 0.5 ml of saline solution. The injections were continued for 10 days. Mortalities were recorded for 60 days. The results were expressed as the percentage increase in life span (ILS): […]

cancer cell lines = assay: Apoptosis assay, cancer cells (cell line not given); format: cell-based; conditions: cancer cells
HL-60 (leukemia) cells = assay: Cell death (apoptosis) assay, HL-60 cells; format: cell-based, human; conditions: for apoptotic activity, panel of cell lines (in words): peptide fragment: 6 hours
Method: Fetuin purified from fetal bovine serum by the procedure described above was dissolved in phosphate buffer saline (PBS). The free Zinc Acetate and Barium Acetate were removed by repetitive concentration. Fetuin was tested in LNCaP and HL-60 cells. […] Fetuin (in 10 μl PBS) at concentration of 100 ng/ml was added 3-4 hours after the cells were seeded.

[2] = test system: Calu-1 (human lung carcinoma); assay: Apoptosis assay, Calu-1 cells; format: cell-based; conditions: for apoptotic activity, panel of cell lines (in words): peptide fragment: 6 hours
[3] = test system: LNCaP (prostate cancer) cells; assay: Cell death (apoptosis) assay, LNCaP cells; format: cell-based, human; conditions: for induced apoptosis: 4 hours; for apoptotic activity relative to fetuin prepared by other methods, later conservative estimate: conservatively estimated
Method: […] The free Zinc Acetate and Barium Acetate were removed by repetitive concentration. Fetuin was tested in LNCaP and HL-60 cells. […] Fetuin (in 10 μl PBS) at concentration of 100 ng/ml was added 3-4 hours after the cells were seeded.

[4] = test system: CCD-18 Co (human normal colon fibroblast); assay: Apoptosis assay, CCD-18 Co cells; format: cell-based; conditions: for apoptotic activity, panel of cell lines (in words): peptide fragment: 6 hours
From the text: Zinc charged alpha 1-acid glycoprotein has no effect on CCD 18Co cells (human normal colon fibroblast).

[5] = test system: Hs578 Bst (human normal breast); assay: Apoptosis assay, Hs578 Bst cells; format: cell-based; conditions: peptide fragment: 6 hours
[6] = test system: HT-29 (human colon adenocarcinoma); assay: Apoptosis assay, HT-29 cells; conditions: for apoptotic activity, panel of cell lines (in words): peptide fragment: 6 hours
Method: Prostate cancer cell line LNCAP was routinely used for the isolation of Apogen P-1 and Apogen P-2, whereas leukemia cell line HL-60 was used for the isolation of Apogen L. The methods of assays were as follows: LNCAP or HL-60 (1,000 cells) was seeded in 10 microliters RPMI containing 15% or 20% Fetal bovine serum, penicillin and streptomycin at 37 degrees, 5% CO2 in Microtray plates (25 μl wells, Robbins Scientific Corp.). The tested sample (10 μl) was added 3-4 hours after cells were seeded. After incubation of the tested sample with cells for 15 hours, two microliters of Hoechst dye (0.03 ng/ml in PBS) was added. Two hours later, cells that were stained with Hoechst dye were examined under fluorescence microscope. […] The percentage of apoptotic cells was calculated by the following equation:
The DNA condensation, DNA fragmentation and peripheral crescents of the nuclei are characteristics of a cell under apoptosis.

Hep G2 (Human hepatoma) = assay: Apoptosis assay, Hep G2 cells
[7] = test system: CCD25 Lu (human normal lung); assay: Apoptosis assay, CCD25 Lu cells; format: cell-based; conditions: peptide fragment: 6 hours
[8] = test system: p3HR-1 (human Burkitt lymphoma); assay: Apoptosis assay, p3HR-1 cells; format: cell-based; conditions: peptide fragment: 6 hours
[9] = test system: CCD 39 Lu (normal lung fibroblast); assay: Apoptosis assay, CCD 39 Lu cells; format: cell-based, human
PC-3 (prostate cancer) = assay: Apoptosis assay, PC-3 cells; format: cell-based; conditions: 50 μg/ml
Colo 205 (colon cancer) = assay: Apoptosis assay, Colo 205 cells; format: cell-based; conditions: 50 μg/ml
Method: The tested sample (10 μl) was added 3-4 hours after cells were seeded. After incubation of the tested sample with cells for 15 hours, two microliters of Hoechst dye (0.03 ng/ml in PBS) was added. Two hours later, cells that were stained with Hoechst dye were examined under fluorescence microscope. […] The percentage of apoptotic cells was calculated by the following equation:

[10] = test system: MCF-7 (breast cancer) cells; assay: Apoptosis assay, MCF-7 cells; format: cell-based
[11] = 100 ng/ml in PBS, 15 hours, Hoechst dye

## fetal fetuin: Zinc-charged fetal fetuin (10 mg/ml) injected intraperitoneally into mice
[1]; 100 mg/Kg intraperitoneally for 10 days, untreated 100% dead after 24 days
  mice that survived more than 58 days: 80%
[1]; leukemia-bearing mice treated with fetal fetuin
  increased life span (ILS): 141%

## zinc charged alpha 1-acid glycoprotein: alpha 1-acid glycoprotein from adult human serum, EDTA treated and charged with zinc acetate
Cancer cell lines
  concentration at which apoptotic activity was induced (apoptotic threshold): 0.75 µM
HL-60 (leukemia) cells
  apoptotic activity, panel of cell lines (in words): apoptotic activity was present
[2]
  apoptotic activity, panel of cell lines (in words): apoptotic activity was present
[3]
  apoptotic activity, panel of cell lines (in words): apoptotic activity was present
[4]; 5 μM, six hours
  cell death (in words): did not cause cell death
[4]
  apoptotic activity, panel of cell lines (in words): no activity was present
[5]
  apoptotic activity, panel of cell lines (in words): no activity was present; also recorded: no effect was seen
[6]; 5 μM, 4 hours
  apoptosis: 100%
  apoptotic activity / morphology (in words): resulted in the condensation and fragmentation of DNA
[6]
  apoptotic activity, panel of cell lines (in words): apoptotic activity was present
Hep G2 (Human hepatoma)
  apoptotic activity, panel of cell lines (in words): apoptotic activity was present
Hep G2 (Human hepatoma); 5 μM, 4 hours
  cell death: 90%
[7]
  apoptotic activity, panel of cell lines (in words): no activity was present; also recorded: no effect was seen
[8]
  apoptotic activity, panel of cell lines (in words): apoptotic activity was present

## zinc charged alpha 1-antitrypsin: alpha 1-antitrypsin (Sigma), EDTA treated and charged with zinc acetate
HL-60 (leukemia) cells
  apoptotic activity, panel of cell lines (in words): induced apoptosis
[2]
  apoptotic activity, panel of cell lines (in words): induced apoptosis
[3]
  apoptotic activity, panel of cell lines (in words): induced apoptosis
[4]
  apoptotic activity, panel of cell lines (in words): no effect was seen
[6]; 5 μM, 4 hours
  apoptotic activity / morphology (in words): caused cell shrinkage and membrane blebbing
[6]
  apoptotic activity, panel of cell lines (in words): induced apoptosis
[9]
  apoptotic activity, panel of cell lines (in words): no effect was seen
[7]
  apoptotic activity, panel of cell lines (in words): no effect was seen
[8]
  apoptotic activity, panel of cell lines (in words): induced apoptosis

B1: zinc charged alpha 2-HS glycoprotein: alpha 2-HS glycoprotein (Sigma), EDTA treated and charged with zinc acetate (protein, UniProt P02765 19-300; P02765 341-367, looked up)
Alpha-2-HS-glycoprotein chain … 1: APHGPGLIYRQPNCDDPETEEAALVAIDYINQNLPWGYKHTLNQIDEVKVWPQQPSGELFEIEIDTLETTCHVLDPTPVARCSVRQLKEHAVEGDCDFQLLKLDGKFSVVYAKCDSSPDSAEDVRKVCQDCPLLAPLNDTRVVHAAKAALAAFNAQNNGSNFQLEEISRAQLVPLPPSTYVEFTVSGTDCVAKEATEAAKCNLLAEKQYGFCKATLSEKLGGAEVAVTCMVFQTQPVSSQPQPEGANEAVPTPVVDPDAPPSPPLGAPGLPPAGSPPDSHVL
Alpha-2-HS-glycoprotein chain … 2: TVVQPSVGAAAGPVVPPCPGRIRHFKV
modifications: zinc charged
notes: alpha 2-HS glycoprotein (Sigma), EDTA treated and charged with zinc acetate
HL-60 (leukemia) cells
  apoptotic activity, panel of cell lines (in words): induced apoptosis
[2]
  apoptotic activity, panel of cell lines (in words): induced apoptosis
[3]
  apoptotic activity, panel of cell lines (in words): induced apoptosis
[6]; 5 μM, 4 hours
  apoptotic activity / morphology (in words): caused cell shrinkage and membrane blebbing
[6]
  apoptotic activity, panel of cell lines (in words): induced apoptosis
Hep G2 (Human hepatoma)
  apoptotic activity, panel of cell lines (in words): induced apoptosis
[8]
  apoptotic activity, panel of cell lines (in words): induced apoptosis

B2: fetuin: bovine fetuin from fetal bovine serum by the modified Spiro method with zinc acetate (Section 4A) (protein, UniProt P12763 19-359, looked up)
Alpha-2-HS-glycoprotein: IPLDPVAGYKEPACDDPDTEQAALAAVDYINKHLPRGYKHTLNQIDSVKVWPRRPTGEVYDIEIDTLETTCHVLDPTPLANCSVRQQTQHAVEGDCDIHVLKQDGQFSVLFTKCDSSPDSAEDVRKLCPDCPLLAPLNDSRVVHAVEVALATFNAESNGSYLQLVEISRAQFVPLPVSVSVEFAVAATDCIAKEVVDPTKCNLLAEKQYGFCKGSVIQKALGGEDVRVTCTLFQTQPVIPQPQPDGAEAEAPSAVPDAAGPTPSAAGPPVASVVVGPSVVAVPLPLHRAHYDLRHTFSGVASVESSSGEAFHVGKTPIVGQPSIPGGPVRLCPGRIRYFKI
modifications: zinc
HL-60 (leukemia) cells; [11]
  apoptosis, nuclear morphology (in words): showed the characteristics of apoptosis
HL-60 (leukemia) cells; 25 μg/ml
  induction of apoptosis (in words): highly induced apoptosis
HL-60 (leukemia) cells; 50 μg/ml
  induction of apoptosis (in words): strongly induced apoptosis
[2]; 50 μg/ml
  induction of apoptosis (in words): strongly induced apoptosis
[3]; [11]
  apoptosis, nuclear morphology (in words): showed the characteristics of apoptosis
[3]; 25 μg/ml
  induction of apoptosis (in words): highly induced apoptosis
  induced apoptosis: up to 90%
[3]; 50 μg/ml
  induction of apoptosis (in words): strongly induced apoptosis
[3]; approximately 50 μM
  induced apoptosis: up to 90%
[3]; listed as Fetuin as prepared in Section 4A
  apoptotic activity relative to fetuin prepared by other methods, later conservative estimate: approximately 100 times
[3]; listed as fetuin as prepared in Section 4A
  apoptotic activity relative to fetuin prepared by other methods, later conservative estimate: more than one hundred times greater
[3]; initially estimated
  apoptotic activity relative to fetuin prepared by other methods, initial estimate: more than fifty thousand folds higher; also recorded: more than fifty thousand times higher
PC-3 (prostate cancer)
  induction of apoptosis (in words): strongly induced apoptosis
Colo 205 (colon cancer)
  induction of apoptosis (in words): strongly induced apoptosis
[10]; 25 μg/ml
  induction of apoptosis (in words): highly induced apoptosis
[10]; 50 μg/ml
  induction of apoptosis (in words): strongly induced apoptosis
[9]; 25 μg/ml, 15 hours
  induction of apoptosis (in words): inactive in inducing apoptosis
[9]; 50 μg/ml
  induction of apoptosis (in words): is not affected
